# Like-named read-outs stand apart in the source and are kept apart here.
# Experiments:
# Pseudomonas aeruginosa = assay: MIC, 25 ocular isolates, broth microdilution (Example 8); format: cell-based
# Procedure: (§1) • Mueller-Hinton Broth in tubes was inoculated with 25 ocular isolates of Staphylococcus aureus fluoroquinolone-susceptible, Staphylococcus aureus fluoroquinolone-resistant, Staphylococcus epidermidis (Coagulase-negative Staphylococcus) fluoroquinolone-susceptible, Staphylococcus epidermidis (Coagulase-negative Staphylococcus) fluoroquinolone-resistant, Pseudomonas aeruginosa and Serratia marcescens, plus two controls (Staphylococcus aureus and E. coli) and incubated at 37° C. overnight on a shaker set at 250 rpm.
# (§2) On the day of testing, a 640 μg/ml (1280 μg/ml for Serratia marcescens and Pseudomonas aeruginosa) concentration was prepared from a 1% stock solution in 0.01% acetic acid, 0.2% BSA in polypropylene tubes.
# (§3) Serial doubling dilutions in 0.01% acetic acid, 0.2% BSA in 96 well polypropylene plates, which are used as reservoirs for the inoculation of the test plates, were carried out to obtain serial dilutions of test agents at 10 times the required test concentrations: 640, 320, 160, 80, 40, 20, 10, 5, 2.5, 1.25, and 0.625 μg/ml (1280, 640, 320, 160, 80, 40, 20, 10, 5, 2.5, and 1.25 μg/ml for Serratia marcescens and Pseudomonas aeruginosa).
# (§4) Ten μl of diluted 10×test agents was added to each well of one row of the 96 well polypropylene plates from column 2 to column 12 (column 1 is a control for bacteria alone, with no peptide). Test agent concentrations in columns 2-12 were as follows: 64, 32, 16, 8, 4, 2, 1, 0.5, 0.25, 0.125, and 0.0625 μg/ml (128, 64, 32, 16, 8, 4, 2, 1, 0.5, 0.25, and 0.125 μg/ml for Serratia marcescens and Pseudomonas aeruginosa). The same peptide was in each of the 8 rows. One plate contained dilutions of one test agent and 8 bacterial isolates.
# (§5) On the day of testing, the overnight bacterial broth cultures of Staphylococcus aureus fluoroquinolone-susceptible, Staphylococcus aureus fluoroquinolone-resistant, Staphylococcus epidermidis (Coagulase-negative Staphylococcus) fluoroquinolone-susceptible, Staphylococcus epidermidis (Coagulase-negative Staphylococcus) fluoroquinolone-resistant, Serratia marcescens, and Pseudomonas aeruginosa, plus two controls (Staphylococcus aureus and E. coli) were diluted in 5 ml of trypticase soy broth to yield turbidity equal to a 0.5 McFarland standard. The final inoculum for MIC testing for Staphylococcus aureus fluoroquinolone-susceptible, Staphylococcus aureus fluoroquinolone-resistant, Staphylococcus epidermidis (Coagulase-negative Staphylococcus) fluoroquinolone-susceptible, Staphylococcus epidermidis (Coagulase-negative Staphylococcus) fluoroquinolone-resistant, Serratia marcescens, and Pseudomonas aeruginosa was achieved by placing 0.05 ml of the turbidity adjusted sample to 5 ml of Mueller-Hinton broth.
# (§6) Ninety μl of the bacterial suspensions was dispensed in each well from column 1 to column 12. Each bacterial isolate was placed in one row of a 96 well polypropylene plate containing the test agents. The plates were placed on shaker at 15 minutes at room temperature, and then incubated at 37° C. overnight. MICs were determined visually as the lowest concentration of drug that inhibits visible bacterial growth.
# Serratia marcescens = assay: as above; format: cell-based
# Procedure: as §1, §2, §3, §4, §5, §6
# [1] = 25 isolates, Summary of Results, >128 was Replaced with 256
smiles,measurement,setting,value
N=C(N)NCCCCC(=O)Nc1cc(C(F)(F)F)cc(NC(=O)c2cc(C(=O)Nc3cc(C(F)(F)F)cc(NC(=O)CCCCNC(=N)N)c3O[C@@H]3CCNC3)ncn2)c1O[C@@H]1CCNC1 [Oligomer 4],MIC50,"Pseudomonas aeruginosa; 25 isolates, Row 13",4 µg/mL
same,Range of MICs,Pseudomonas aeruginosa; [1],0.5 to 8 µg/mL
same,MIC,"Pseudomonas aeruginosa; Pseudomonas aeruginosa, 25 ocular isolates, read-out: Median MIC",4 µg/mL
same,MIC,"Pseudomonas aeruginosa; Pseudomonas aeruginosa, isolate 1—K1673, read-out: MIC",2 µg/mL
same,MIC,"Pseudomonas aeruginosa; Pseudomonas aeruginosa, isolate 2—K1668, read-out: MIC",2 µg/mL
same,MIC,"Pseudomonas aeruginosa; Pseudomonas aeruginosa, isolate 3—K1662, read-out: MIC",2 µg/mL
same,MIC,"Pseudomonas aeruginosa; Pseudomonas aeruginosa, isolate 4—K1657, read-out: MIC",2 µg/mL
same,MIC,"Pseudomonas aeruginosa; Pseudomonas aeruginosa, isolate 5—K1651, read-out: MIC",4 µg/mL
same,MIC,"Pseudomonas aeruginosa; Pseudomonas aeruginosa, isolate 6—K1649, read-out: MIC",4 µg/mL
same,MIC,"Pseudomonas aeruginosa; Pseudomonas aeruginosa, isolate 7—K1564, read-out: MIC",8 µg/mL
same,MIC,"Pseudomonas aeruginosa; Pseudomonas aeruginosa, isolate 8—K1636, read-out: MIC",0.5 µg/mL
same,MIC,"Pseudomonas aeruginosa; Pseudomonas aeruginosa, isolate 9—K1634, read-out: MIC",2 µg/mL
same,MIC,"Pseudomonas aeruginosa; Pseudomonas aeruginosa, isolate 10—K1633, read-out: MIC",4 µg/mL
same,MIC,"Pseudomonas aeruginosa; Pseudomonas aeruginosa, isolate 11—K1632, read-out: MIC",4 µg/mL
same,MIC,"Pseudomonas aeruginosa; Pseudomonas aeruginosa, isolate 12—K1631, read-out: MIC",8 µg/mL
same,MIC,"Pseudomonas aeruginosa; Pseudomonas aeruginosa, isolate 13—K1629, read-out: MIC",4 µg/mL
same,MIC,"Pseudomonas aeruginosa; Pseudomonas aeruginosa, isolate 14—K1627, read-out: MIC",2 µg/mL
same,MIC,"Pseudomonas aeruginosa; Pseudomonas aeruginosa, isolate 15—K1626, read-out: MIC",8 µg/mL
same,MIC,"Pseudomonas aeruginosa; Pseudomonas aeruginosa, isolate 16—K1625, read-out: MIC",4 µg/mL
same,MIC,"Pseudomonas aeruginosa; Pseudomonas aeruginosa, isolate 17—K1562, read-out: MIC",4 µg/mL
same,MIC,"Pseudomonas aeruginosa; Pseudomonas aeruginosa, isolate 18—K1613, read-out: MIC",4 µg/mL
same,MIC,"Pseudomonas aeruginosa; Pseudomonas aeruginosa, isolate 19—K1553, read-out: MIC",2 µg/mL
same,MIC,"Pseudomonas aeruginosa; Pseudomonas aeruginosa, isolate 20—K1594, read-out: MIC",2 µg/mL
same,MIC,"Pseudomonas aeruginosa; Pseudomonas aeruginosa, isolate 21—K1588, read-out: MIC",4 µg/mL
same,MIC,"Pseudomonas aeruginosa; Pseudomonas aeruginosa, isolate 22—K1554, read-out: MIC",4 µg/mL
same,MIC,"Pseudomonas aeruginosa; Pseudomonas aeruginosa, isolate 23—K1580, read-out: MIC",2 µg/mL
same,MIC,"Pseudomonas aeruginosa; Pseudomonas aeruginosa, isolate 24—K1577, read-out: MIC",2 µg/mL
same,MIC,"Pseudomonas aeruginosa; Pseudomonas aeruginosa, isolate 25—K1576, read-out: MIC",4 µg/mL
same,MIC,"Pseudomonas aeruginosa; Pseudomonas aeruginosa, n=25 per group, read-out: Median MIC",4 µg/mL
same,MIC50,"Pseudomonas aeruginosa; Pseudomonas aeruginosa, 25 isolates, Summary of Results, read-out: MIC50",4 µg/mL
same,MIC90,"Pseudomonas aeruginosa; Pseudomonas aeruginosa, 25 isolates, Summary of Results, read-out: MIC90",4 µg/mL
same,MIC,"Pseudomonas aeruginosa; Pseudomonas aeruginosa, 25 isolates, Summary of Results, read-out: Median MIC",4 µg/mL
same,MIC50,Pseudomonas aeruginosa; n=25 per group,4 µg/mL
same,MIC90,Pseudomonas aeruginosa; n=25 per group,4 µg/mL
same,Range of MICs,Pseudomonas aeruginosa; n=25 per group,0.5 to 8 µg/mL
same,MIC50,"Serratia marcescens; 25 isolates, Row 13, >128 was Replaced with 256",8 µg/mL
same,MIC90,"Serratia marcescens; 25 isolates, Row 22, >128 was Replaced with 256",32 µg/mL
same,Range of MICs,Serratia marcescens; [1],0.25 to 32 µg/mL
same,MIC,"Serratia marcescens; Serratia marcescens, 25 ocular isolates, read-out: Median MIC",8 µg/mL
same,MIC,"Serratia marcescens; Serratia marcescens, isolate 1—K1681, read-out: MIC",32 µg/mL
same,MIC,"Serratia marcescens; Serratia marcescens, isolate 2—K1674, read-out: MIC",32 µg/mL
same,MIC,"Serratia marcescens; Serratia marcescens, isolate 3—K1558, read-out: MIC",4 µg/mL
same,MIC,"Serratia marcescens; Serratia marcescens, isolate 4—K1538, read-out: MIC",16 µg/mL
same,MIC,"Serratia marcescens; Serratia marcescens, isolate 5—K1503, read-out: MIC",32 µg/mL
same,MIC,"Serratia marcescens; Serratia marcescens, isolate 6—K1216, read-out: MIC",4 µg/mL
same,MIC,"Serratia marcescens; Serratia marcescens, isolate 7—K1496, read-out: MIC",8 µg/mL
same,MIC,"Serratia marcescens; Serratia marcescens, isolate 8—K1481, read-out: MIC",2 µg/mL
same,MIC,"Serratia marcescens; Serratia marcescens, isolate 9—K1470, read-out: MIC",32 µg/mL
same,MIC,"Serratia marcescens; Serratia marcescens, isolate 10—K1468, read-out: MIC",2 µg/mL
same,MIC,"Serratia marcescens; Serratia marcescens, isolate 11—K1467, read-out: MIC",32 µg/mL
same,MIC,"Serratia marcescens; Serratia marcescens, isolate 12—K1462, read-out: MIC",16 µg/mL
same,MIC,"Serratia marcescens; Serratia marcescens, isolate 13—K1461, read-out: MIC",8 µg/mL
same,MIC,"Serratia marcescens; Serratia marcescens, isolate 14—K1413, read-out: MIC",16 µg/mL
same,MIC,"Serratia marcescens; Serratia marcescens, isolate 15—K1402, read-out: MIC",0.25 µg/mL
same,MIC,"Serratia marcescens; Serratia marcescens, isolate 16—K1357, read-out: MIC",1 µg/mL
same,MIC,"Serratia marcescens; Serratia marcescens, isolate 17—K1351, read-out: MIC",0.5 µg/mL
same,MIC,"Serratia marcescens; Serratia marcescens, isolate 18—K1327, read-out: MIC",8 µg/mL
same,MIC,"Serratia marcescens; Serratia marcescens, isolate 19—K1321, read-out: MIC",8 µg/mL
same,MIC,"Serratia marcescens; Serratia marcescens, isolate 20—K1315, read-out: MIC",16 µg/mL
same,MIC,"Serratia marcescens; Serratia marcescens, isolate 21—K1306, read-out: MIC",8 µg/mL
same,MIC,"Serratia marcescens; Serratia marcescens, isolate 22—K1290, read-out: MIC",8 µg/mL
same,MIC,"Serratia marcescens; Serratia marcescens, isolate 23—K1265, read-out: MIC",8 µg/mL
same,MIC,"Serratia marcescens; Serratia marcescens, isolate 24—K1263, read-out: MIC",8 µg/mL
same,MIC,"Serratia marcescens; Serratia marcescens, isolate 25—K1239, read-out: MIC",8 µg/mL
same,MIC,"Serratia marcescens; Serratia marcescens, n=25 per group, read-out: Median MIC",8 µg/mL
same,MIC50,"Serratia marcescens; Serratia marcescens, 25 isolates, Summary of Results, >128 was Replaced with 256, read-out: MIC50",8 µg/mL
same,MIC90,"Serratia marcescens; Serratia marcescens, 25 isolates, Summary of Results, >128 was Replaced with 256, read-out: MIC90",32 µg/mL
same,MIC,"Serratia marcescens; Serratia marcescens, 25 isolates, Summary of Results, >128 was Replaced with 256, read-out: Median MIC",8 µg/mL
same,MIC50,Serratia marcescens; n=25 per group,8 µg/mL
same,MIC90,Serratia marcescens; n=25 per group,32 µg/mL
same,Range of MICs,Serratia marcescens; n=25 per group,0.25 to 32 µg/mL
